Measurements as given in patent publication US20060235222A1, “Indole-derivative modulators of steroid hormone nuclear receptors” (ELI LILLY AND COMPANY, priority 2003, published 2006).

These compounds were tested against T1, human MR (Homo sapiens, UniProt P08235) (assay: Mineralocorticoid Receptor Binding Assay (Method 1), [3H]-aldosterone competition). Settings: 0.5 nM [3H]-aldosterone, human MR expressed in Sf9 cells.
T1 construct: The full length human MR gene is cloned from a human kidney or human brain cDNA library; inferred from own knowledge of the pAcHLT vector (N); made in house; host or cells: Sf9 insect cells (baculovirus)
T1 sequence (P08235 1-984): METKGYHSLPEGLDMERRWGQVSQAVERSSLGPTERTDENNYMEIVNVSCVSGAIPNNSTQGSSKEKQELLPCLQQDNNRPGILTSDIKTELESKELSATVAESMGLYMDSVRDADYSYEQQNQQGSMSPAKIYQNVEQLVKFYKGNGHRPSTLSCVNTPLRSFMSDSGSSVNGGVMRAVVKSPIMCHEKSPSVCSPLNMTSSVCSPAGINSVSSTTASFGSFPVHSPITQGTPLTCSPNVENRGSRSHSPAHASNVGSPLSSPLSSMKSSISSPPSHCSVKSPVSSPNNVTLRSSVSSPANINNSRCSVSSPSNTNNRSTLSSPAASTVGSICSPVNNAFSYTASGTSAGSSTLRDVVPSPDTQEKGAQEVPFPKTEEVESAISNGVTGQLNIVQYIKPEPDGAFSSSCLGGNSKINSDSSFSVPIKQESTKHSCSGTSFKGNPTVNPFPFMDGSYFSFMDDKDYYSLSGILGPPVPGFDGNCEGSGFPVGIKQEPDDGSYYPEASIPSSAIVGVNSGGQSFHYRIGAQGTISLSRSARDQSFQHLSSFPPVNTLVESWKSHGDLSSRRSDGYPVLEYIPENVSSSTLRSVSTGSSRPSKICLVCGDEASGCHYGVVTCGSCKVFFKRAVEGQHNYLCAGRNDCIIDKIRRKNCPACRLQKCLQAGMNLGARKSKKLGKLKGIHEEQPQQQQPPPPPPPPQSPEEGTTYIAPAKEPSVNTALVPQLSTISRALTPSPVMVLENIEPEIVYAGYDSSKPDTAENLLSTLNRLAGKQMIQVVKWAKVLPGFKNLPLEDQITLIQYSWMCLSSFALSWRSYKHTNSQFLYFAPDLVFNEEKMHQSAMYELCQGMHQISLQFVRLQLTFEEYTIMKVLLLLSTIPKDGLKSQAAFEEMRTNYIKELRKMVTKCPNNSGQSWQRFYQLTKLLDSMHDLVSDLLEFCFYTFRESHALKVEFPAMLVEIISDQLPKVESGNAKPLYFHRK
Method: Mineralocorticoid Receptor Binding Assay (Method 1):
The full length human MR gene is cloned from a human kidney or human brain cDNA library. […] The PCR reaction is performed in a final volume of 50 μl containing about 1 μl of a 50× stock solution of polymerase; about 1 μl of a 50× stock solution of dNTP; about 5 μl of an appropriate PCR buffer; about 1 μl of each primer; about 5 μl of a H. kidney or H. brain cDNA library; and about 36 μl of water. The reaction is allowed to denature for about 30 seconds at 95 degrees Celsius, anneal for about 30 seconds at 55 degrees Celsius, and extend for about 5 minutes at 72 degrees Celsius, the sequence being repeated for a total of about 35 cycles. […] To extract the cDNA product from the agarose gel, the QIAEX II Gel Extraction protocol (QIAGEN, Inc.) is employed according to the manufacturer's instructions. Following extraction, the MR cDNA is cloned into an appropriate cloning vector (Zero Blunt TOPO PCR Cloning Kit (Invitrogen, Inc.) and a pAcHLT-baculovirus transfer vector (B.D./Pharminogen), then expressed in SF9 insect cells, essentially according to manufacturer's instructions. Sf9 cells are grown at a scale where gram quantity cell pellets are obtained for subsequent use in the MR binding assay. Harvested cell pellets are lysed by repeated freeze-thaw cycles (about 4) in a suitable lysis buffer then centrifuged at about 1×10^3 G (with the supernatant being saved for future assays).
MR binding assays are performed in a final total volume of about 250 μl containing about 20-25 μg of protein and 0.5 nM of [^3H]-aldosterone plus varying concentrations of test compound or vehicle. The assay binding buffer consists of 30 mM sodium molybdate, 30 mM of TRIS-HCl, 5 mM sodium phosphate, 5 mM sodium pyrophosphate, and about 10% glycerol, pH=7.5.
Incubations are carried out at 4 degrees Celsius with shaking for about 16 hours. 200 μl aliquots of each incubation are filtered onto Millipore HA 0.45 micron 96-well filter plates, pre-moistened with cold 30 mM TRIS-HCl. The filter plates are suctioned dry with vacuum and immediately washed 3× with cold 30 mM TRIS-HCl. The plates are then punched out and the amount of receptor-ligand complex is determined by liquid scintillation counting using 4 ml of Ready Protein Plus™ liquid scintillation cocktail.

Ki, < 500 nM:
CC(c1ccc2c(c1)OCCO2)(c1c[nH]c2c(NS(C)(=O)=O)cccc12)C1CC1 (centres unmarked) [Example 129, N-{3-[1-Cyclopropyl-1-(2,3-dihydro-benzo[1,4]dioxin-6-yl)-ethyl]-1H-indol-7-yl}-methanesulfonamide]
CCS(=O)(=O)Nc1cccc2c([C@](C)(c3ccc(F)cc3F)C3CC3)c[nH]c12 (stereo in doubt) [Example 126, Ethanesulfonic acid {3-[1-cyclopropyl-1-(2,4-difluoro-phenyl)-ethyl]-1H-indol-7-yl}-amide]
CC(c1ccc2c(c1)OCO2)(c1c[nH]c2c(NS(C)(=O)=O)cccc12)C1CC1 (centres unmarked) [Example 131, N-[3-(1-Benzo[1,3]dioxol-5-yl-1-cyclopropyl-ethyl)-1H-indol-7-yl]-methanesulfonamide]
CCC(CC)(c1ccc2cc(C)oc2c1)c1c[nH]c2c(NS(C)(=O)=O)cccc12 [Example 188]
CC(C)(c1ccccc1-c1ccccc1)c1c[nH]c2c(NS(C)(=O)=O)cccc12 [Example 34, N-[3-(1-Biphenyl-2-yl-1-methyl-ethyl)-1H-indol-7-yl]-methanesulfonamide]
CCC(CC)(c1ccc2sc(NC(C)=O)nc2c1)c1c[nH]c2c(NS(C)(=O)=O)cccc12 [Example 196]
CCC(CC)(c1ccc2c(c1)OCCO2)c1c[nH]c2c(NS(=O)(=O)CC)cccc12 [Example 133, N-{3-[1-(2,3-Dihydro-benzo[1,4]dioxin-6-yl)-1-ethyl-propyl]-1H-indol-7-yl}-ethanesulfonamide]
COc1cc(C(C)(c2c[nH]c3c(NS(C)(=O)=O)cccc23)C2CC2)ccc1F (centres unmarked) [Example 125, N-{3-[1-Cyclopropyl-1-(4-fluoro-3-methoxy-phenyl)-ethyl]-1H-indol-7-yl}-methanesulfonamide]
CCC(CC)(c1cccc2oc(C)cc12)c1c[nH]c2c(NS(C)(=O)=O)cccc12 [Example 184]
CCC(CC)(c1ccc2ccn(C(C)=O)c2c1)c1c[nH]c2c(NS(C)(=O)=O)cccc12 [Example 183]
C[C@](c1ccc2c(c1)OCCO2)(c1c[nH]c2c(NS(C)(=O)=O)cccc12)C1CC1 [Example 194]
CCC(CC)(c1ccc2c(c1)OCCO2)c1c[nH]c2c(NS(C)(=O)=O)cccc12 [Example 128, N-{3-[1-(2,3-Dihydro-benzo[1,4]dioxin-6-yl)-1-ethyl-propyl]-1H-indol-7-yl}-methanesulfonamide]
CCC(CC)(c1ccc2c(c1)nc(C)n2C)c1c[nH]c2c(NS(C)(=O)=O)cccc12 [Example 198]
COc1ccc(C(C)(c2c[nH]c3c(NS(C)(=O)=O)cccc23)C2CC2)cc1F (centres unmarked) [Example 123]
CCC(COC)(c1ccccc1)c1c[nH]c2c(NS(C)(=O)=O)cccc12 (centres unmarked) [Example 74, N-[3-(1-Methoxymethyl-1-phenyl-propyl)-1H-indol-7-yl]-methanesulfonamide]
COc1cc(C(C)(c2c[nH]c3c(NS(C)(=O)=O)cccc23)C2CC2)ccc1Cl (centres unmarked) [Example 124, N-{3-[1-(4-Chloro-3-methoxy-phenyl)-1-cyclopropyl-ethyl]-1H-indol-7-yl}-methanesulfonamide]
CC(c1ccc(F)cc1)(c1c[nH]c2c(NS(C)(=O)=O)cccc12)C1CCC1 (centres unmarked) [Example 127, N-{3-[1-Cyclobutyl-1-(4-fluoro-phenyl)-ethyl]-1H-indol-7-yl}-methanesulfonamide]
